In US9410947B2, “Fluorescent dyes and related methods” (University of Washington through its Center for …, priority 2012, dated 2016):
“Also recorded” adds a separate entry of the source.

How the values were obtained:
[1] = system: Prorocentrum minimum; assay: Flow cytometric analysis of DNA staining in alga; format: cell-based; conditions: 1% DMSO
Source text: In another aspect, this example describes a set of experiments to investigate DANPY-1 dye for use in flow cytometric analysis of DNA. The alga Prorocentrum minimum was selected for these studies. Several controls were run to: (a) ensure that cell integrity was maintained, (b) assess the contribution of unbound DANPY-1 to fluorescent background signals and (c) determine a dye concentration and the intensity of the fluorescent signal when the target DNA is fully saturated with bound dye. The DANPY-1 concentrations that were tested in these preliminary experiments ranged from 7.1 μM to 228 μM. All of the flow cytometric work was performed on an Accuri C6 flow cytometer (BD Scientific, Ann Arbor, Mich.). The excitation wavelength for the FL1, FL2, and FL3 detectors (or channels) is 488 nm and the FL4 laser excites at a wavelength of 640 nm. The fluorescent wavelengths that each channel detects are as follows: FL1 530/30, FL2 585/40, FL3 670 LP and FL4 675/25. These experiments are summarized below (data not shown): […]

[2] = Solubility in solvents; format: physicochemical
[3] = system: salmon sperm DNA; assay: Photometric (colorimetric) titration of dye solutions with DNA, Scatchard / n-K fit; format: binding
Protocol: Dye/DNA binding was assessed. The binding constant and number of dye molecules bound per base pair were assessed by means of photometric titrations (Peacocke, A. R.; Skerrett, J. N. H., Trans. Faraday Soc. 1956, 52, 261, Angerer, L. M.; Moudrianakis, E. N., J. Mol. Bio. 1972, 63, 505-521) of dye solutions with commercially available salmon sperm DNA (Sigma Aldrich, MW 50 kD to 100 kD) in 10 mM TE buffer at pH 7.2. Experiments were run using a temperature-controlled Ocean Optics diode array spectrophotometer at 25.0° C., with 2.5 mL of dye solution at a concentration sufficient for an initial optical density near 0.75, adding 1.5 mM DNA solution in 30 μL aliquots.
This example describes affinity of DANPY-1 to DNA. […] These experiments were analyzed using the Scatchard equation (Scatchard, G., Ann. N.Y. Acad. Sci. 1949, 51, 662-672.) […]
A titration methodology was also used. Dyes were evaluated for their DNA-binding properties by means of colorimetric titrations in buffered aqueous solution (1×TE buffer titrated to pH 7.2 with HCl). […] After allowing the solution to mix for about one minute, the stirrer was stopped and a spectrum was recorded. If the initial absorbance of the dye was ≧1, the dye solution was diluted with the appropriate solvent (TE buffer, methanol, or butanol) until the initial absorbance was <1. […] The reduced absorbance change […]

[4] = in chloroform, extrapolated to zero frequency; cited from earlier work
[5] = system: tRNA; assay: QCM-D binding study, tRNA layer; conditions: pH 7.2 1×TE buffer, 298 K, 0.3 mL/min, rinse ten minutes
Source text: (§1) In yet another aspect, the present disclosure includes methods for quantifying nucleic acid molecules in a sample. For example, the present disclosure can include a method of determining a quantity of a nucleic acid molecule in a sample using the Quartz Crystal Microbalance with Dissipation Monitoring (QCM-D) method. QCM-D can be used to determine the formation of films (e.g., nm in thickness). For example, films may be formed on a surface from proteins, polymers, surfactants and cells. QCM-D can detect films formed in liquid and may be used to determine binding kinetics of, for example, cationic dyes (e.g., ethidium bromide, DANPY-1 and/or DAST). For example, a Q-Sense instrument (e.g., a Q-Sense E4 instrument, Biolin Scientific AB, Stockholm) can be used for QCM-D using a dedicated set of QCM sensors (e.g., SiO2-coated). The procedures of cleaning, deposition, mass monitoring, and preparing nucleic acid for QCM-D are known. (R. J. Rawle, C. R. D. Selassie, M. S. Johal, Langmuir 2007, 23, 9563-9566). Data can be output as kinetics that can include structural changes and mass changes. The crystals can be, for example, coated with a polyethylene imine (PEI) layer to enable binding of anionic nucleic acids. The crystals can be, for example, coated with a polymer polystyrene sulfonate (PSS), that only undergoes loose electrostatic binding. […]

[6] = system: dsDNA; assay: QCM-D binding study, dsDNA layer; parameters: species or system salmon; conditions: pH 7.2 1×TE buffer, 298 K, 0.3 mL/min, rinse ten minutes
Source text: as §1

[7] = QCM-D binding study, bare SiO2 control; conditions: pH 7.2 1×TE buffer, 298 K
Source text: as §1

[8] = QCM-D binding study, PEI layer
Source text: The three nucleic acids (e.g., single-stranded DNA (ssDNA), double-stranded DNA (dsDNA), and transfer RNA (tRNA)) used in this example are anionic. The crystals were coated with a polyethylene imine (PEI) layer to create a surface and enable binding of the nucleic acids. […] Polystyrene sulfonate (PSS) was used as a control polymer. As controls, PSS which can only undergo loose electrostatic binding, and bare SiO2 were used. Any materials used for coating were allowed to deposit until a stable mass was reached (e.g., for five minutes) followed by five minutes of rinsing with buffer between each layer; (1) PEI or PSS, (2) nucleic acid and (3) the dye. After deposition, the film was rinsed with buffer for ten minutes. If the adsorbed mass returned to near the form immediately prior to the addition of the dye, then remained stable, the binding was characterized as reversible. Binding was characterized as irreversible if the mass remained constant after rinsing or leveled off at a substantially higher value than before the dye was added.

[9] = QCM-D binding study, PSS control polymer; conditions: pH 7.2 1×TE buffer, 298 K
Source text: as §1

[10] = system: ssDNA; assay: QCM-D binding study, ssDNA layer; parameters: species or system salmon; conditions: pH 7.2 1×TE buffer, 298 K, 0.3 mL/min, rinse ten minutes
Source text: as §1

CC(=O)[O-].CN(C)c1ccc2cc(-c3cc[n+](C)cc3)ccc2c1 [DANPY-1, dimethylaminonaphthylpyridinium]
cell concentration ([1]; 7.1 μM dye, 10 minute exposure): 1.02e5 cells/mL | impact on cell integrity ([1]; 7.1 μM dye, 10 minute exposure): no impact on cell integrity | mean fluorescent intensity FL-1 channel ([1]; 7.1 μM dye, FL1 530/30, ex 488 nm): 6032 | mean fluorescent intensity FL-2 channel ([1]; 7.1 μM dye, FL2 585/40, ex 488 nm): 40801 | cell concentration ([1]; 57 μM dye, 10 minute exposure): 9.5e4 cells/mL | impact on cell integrity ([1]; 57 μM dye, 10 minute exposure): no impact on cell integrity | mean FU intensity FL-1 channel ([1]; 57 μM dye, FL1 530/30, ex 488 nm): 17951 FU | mean FU intensity FL-2 channel ([1]; 57 μM dye, FL2 585/40, ex 488 nm): 167481 FU | cell concentration ([1]; 228 μM dye, 10 min exposure): 8.1e4 cells/mL | impact on cell integrity ([1]; 228 μM dye, 10 min exposure): some impact on cell integrity | mean fluorescent intensity FL-1 channel ([1]; 228 μM dye, FL1 530/30, ex 488 nm): 26131 | mean fluorescent intensity FL-2 channel ([1]; 228 μM dye, FL2 585/40, ex 488 nm): 412988 | solubility in standard spin-coating solvents ([2]; TCE and cyclopentanone): poorly soluble | solubility in butanol ([2]; butanol): poorly soluble | solubility in lower alcohols ([2]; methanol, ethanol, and n-propanol): highly soluble

CCN(CCO)c1ccc(N=Nc2ccc([N+](=O)[O-])cc2)cc1 [DR1, Disperse Red 1]
change in the absorbance peak on titration with DNA ([3]; 1:1 TE buffer and ethanol): no substantial change in the absorbance peak | static hyperpolarizability βzzz(0) [4]: 54±5 10^−30 esu | solubility in water ([2]; water): not sufficiently soluble

trans-4-[4-(Dimethylamino)styryl]-1-methylpyridinium toluenesulfonate [DAST]
shift in absorbance maximum upon addition of DNA ([3]; TE buffer): exhibited a shift in absorbance maximum | QCM-D binding to tRNA [5]: did not interact strongly; also recorded: Reversible | QCM-D binding to dsDNA [6]: did not interact strongly and None | QCM-D binding to SiO2 [7]: Reversible | QCM-D binding to PEI layer [8]: did not bind | QCM-D binding to PSS [9]: interacted strongly; also recorded: Partially | QCM-D binding to ssDNA [10]: interacted strongly; also recorded: Irreversible
